Experiments:
[1] = test system: remnant lipoprotein production in plasma of healthy subject; experiment: In vitro effect on remnant lipoprotein production in plasma (RLP-cholesterol JIMRO II); assay type: biochemical, human; conditions: 37° C.
Protocol: Compound A, Compound B, Compound C and Compound D were previously dissolved in dimethyl sulfoxide (DMSO). Plasma (200 μL) of healthy subject, and a solution (2 μL) of each compound in DMSO or DMSO (2 μL) were added into a microtube. On the other hand, a monoclonal antibody against human CETP was diluted with physiological saline and added into a microtube together with plasma (190 μL) of healthy subject and a diluted solution (10 μL) of the monoclonal antibody or physiological saline (10 μL). […] After ice-cooling, the cholesterol amount in the remnant fraction was measured using “RLP-cholesterol “JIMRO II”” (manufactured by Japan Immunoresearch Laboratories Co., Ltd.). The difference in the measured values from incubation of solvent alone at 4° C. and 37° C., namely, an increase in the remnant cholesterol was taken as a 100% production amount of remnant lipoprotein, and the percent of decrease in the measured values of incubation at 37° C. with the addition of each compound or the antibody was taken as percent inhibition of remnant lipoprotein production.

[2] = test system: cholesteryl ester transfer from donor lipoprotein to remnant lipoprotein; experiment: Cholesteryl ester transfer from donor lipoprotein ([3H]CE-HDL3) to remnant lipoprotein fraction in plasma; assay type: biochemical, human; conditions: [3H]CE-HDL3-containing plasma, 37° C.
Protocol: (§1) Potassium bromide (KBr) was added to plasma (40 mL) of healthy subject and the mixture was adjusted to have a specific density d=1.125 g/mL. The mixture was subjected to density gradient centrifugation (227,000×g, 4° C., 17 hr) and a fraction showing a specific density of d>1.125 g/mL (HDL3 fraction) was harvested. The obtained fraction was dialyzed against PBS solution [10 mmol/L Na2HPO4; 10 mmol/L NaH2PO4; 0.15 mol/L NaCl; 1 mmol/L EDTA (pH 7.4)]. Then, tritium-labeled cholesterol (37 MBq) was dissolved in 95% ethanol, gradually added to the above-mentioned HDL3 fraction with stirring and incubated at 37° C. for 18 hr. [By this operation, tritium-labeled cholesterol was esterified by the action of lecithin cholesterol acyl transferase (LCAT) present on the HDL3 surface and taken up into HDL3 as tritium-labeled cholesteryl ester ([^3H]CE)]. After incubation, KBr was added, the mixture was adjusted to have a specific density d=1.21 g/mL, subjected to density gradient centrifugation (227,000×g, 4° C., 17 hr) and a fraction of specific density […] was harvested. The obtained fraction was dialyzed against the aforementioned PBS solution to give HDL3 incorporating [^3H]CE ([^3H]CE-HDL3, specific density: 1.125<d<1.21, specific activity: 22,000-33,000 dpm/μL), which was used as a donor lipoprotein.
The donor lipoprotein obtained above was added to the plasma of healthy subject to prepare a [^3H]CE-HDL3-containing plasma (2,000-4,000 dpm/μL). Compound A, Compound B, Compound C and Compound D were dissolved in dimethyl sulfoxide (DMSO). A solution of each compound in DMSO (1 μL) or DMSO (1 μL), and the [^3H]CE-HDL3-containing plasma (100 μL) were added into a microtube. On the other hand, the monoclonal antibody was diluted with physiological saline and added into a microtube together with a diluted solution (5 μL) of the monoclonal antibody or physiological saline (5 μL), and [^3H]CE-HDL3 containing plasma (95 μL). […] After ice-cooling, a remnant fraction was harvested using “RLP-cholesterol “JIMRO II”” (manufactured by Japan Immunoresearch Laboratories Co., Ltd.), and the radioactivity in the fraction was measured with a liquid scintillation counter. The difference in the measured values from incubation of solvent alone at 4° C. and 37° C. was taken as a 100% cholesteryl ester transfer activity, and the percent of decrease in the measured values of incubation at 37° C. with the addition of each compound or the antibody was taken as percent inhibition of cholesteryl ester transfer.

CETP = target: T1, CETP (Homo sapiens, UniProt P11597); experiment: CETP activity in [3H]CE-HDL3-containing plasma (radioactivity in HDL fraction); assay type: biochemical; conditions: 37° C.
T1 construct: added to the plasma of healthy subject to prepare a [^3H]CE-HDL3-containing plasma; from tissue; host or cells: plasma of healthy subject
T1 sequence (P11597 18-493): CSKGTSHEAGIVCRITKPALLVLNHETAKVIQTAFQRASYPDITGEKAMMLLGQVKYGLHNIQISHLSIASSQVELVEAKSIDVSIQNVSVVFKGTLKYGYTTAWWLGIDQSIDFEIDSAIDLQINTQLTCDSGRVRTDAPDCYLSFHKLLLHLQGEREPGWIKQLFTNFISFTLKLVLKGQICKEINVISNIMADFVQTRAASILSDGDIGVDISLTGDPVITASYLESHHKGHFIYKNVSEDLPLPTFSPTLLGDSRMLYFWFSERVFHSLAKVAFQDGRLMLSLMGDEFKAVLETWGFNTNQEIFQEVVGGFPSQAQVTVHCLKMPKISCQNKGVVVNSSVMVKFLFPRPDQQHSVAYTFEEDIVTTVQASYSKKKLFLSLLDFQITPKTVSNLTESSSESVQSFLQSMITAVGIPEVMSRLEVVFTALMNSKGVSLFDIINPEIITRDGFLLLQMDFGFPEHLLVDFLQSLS
Protocol: as §1
The donor lipoprotein obtained above was added to the plasma of healthy subject to prepare a [^3H]CE-HDL3-containing plasma (2,000-4,000 dpm/μL). […] A solution of each compound in DMSO (1 μL) or DMSO (1 μL), and the [^3H]CE-HDL3-containing plasma (100 μL) were added into a microtube. On the other hand, the monoclonal antibody was diluted with physiological saline and added into a microtube together with a diluted solution (5 μL) of the monoclonal antibody or physiological saline (5 μL), and [^3H]CE-HDL3 containing plasma (95 μL). […] After ice-cooling, a remnant fraction was harvested using “RLP-cholesterol “JIMRO II”” (manufactured by Japan Immunoresearch Laboratories Co., Ltd.), and the radioactivity in the fraction was measured with a liquid scintillation counter. The difference in the measured values from incubation of solvent alone at 4° C. and 37° C. was taken as a 100% cholesteryl ester transfer activity, and the percent of decrease in the measured values of incubation at 37° C. with the addition of each compound or the antibody was taken as percent inhibition of cholesteryl ester transfer.
The CETP activity was measured according to the method shown below using a part of the same plasma after incubation. After ice-cooling, plasma (80 μL) was separated and a TBS solution [80 μL, 20 mmol/L Tris; 0.15 mol/L NaCl (pH 7.4)] containing 50 mmol/L magnesium chloride and 0.1% dextran sulfate was added to each microtube and thoroughly stirred. After standing at 4° C. for 30 min, the mixture was centrifuged (10,000×g, 4° C., 10 min.), and the radioactivity in the obtained supernatant (HDL fraction) was measured with a scintillation counter. The difference in the measured values from incubation of solvent alone at 4° C. and 37° C. was taken as a 100% CETP activity, and the percent of decrease in the measured values of incubation at 37° C. with the addition of each compound or the antibody was taken as percent inhibition of CETP activity. The above results are shown in the following.

| Compound | Inhibition (%) of remnant lipoprotein production ([1]; 0.1 μM, 4 hr) [%] | Inhibition (%) of remnant lipoprotein production ([1]; 0.3 μM, 4 hr) [%] | Inhibition (%) of remnant lipoprotein production ([1]; 1 μM, 4 hr) [%] | Inhibition (%) of cholesteryl ester transfer to remnant fraction ([2]; 0.1 μM, 4 hr) [%] | Inhibition (%) of cholesteryl ester transfer to remnant fraction ([2]; 0.3 μM, 4 hr) [%] | Inhibition (%) of cholesteryl ester transfer to remnant fraction ([2]; 1 μM, 4 hr) [%] | Inhibition (%) of remnant lipoprotein production ([1]; 0.01 μM, 4 hr) [%] | Inhibition (%) of remnant lipoprotein production ([1]; 0.03 μM, 4 hr) [%] | Inhibition (%) of cholesteryl ester transfer to remnant fraction ([2]; 0.01 μM, 4 hr) [%] | Inhibition (%) of cholesteryl ester transfer to remnant fraction ([2]; 0.03 μM, 4 hr) [%] | other results |
| --- | --- | --- | --- | --- | --- | --- | --- | --- | --- | --- | --- |
| CCC(CC)CC1(C(=O)Nc2ccccc2SC(=O)C(C)C)CCCCC1 [Compound A, S-{2-([[1-(2-ethylbutyl)cyclohexyl]carbonyl]amino)phenyl}2-methylpropanethioate] | – | – | – | – | – | – | – | – | – | – | Inhibition (%) of remnant lipoprotein production ([1]; 3 μM, 6 hr): 25%; Inhibition (%) of remnant lipoprotein production ([1]; 10 μM, 6 hr): 54%; Inhibition (%) of remnant lipoprotein production ([1]; 30 μM, 6 hr): 77%; Inhibition (%) of cholesteryl ester transfer to remnant fraction ([2]; 3 μM, 6 hr): 21%; Inhibition (%) of cholesteryl ester transfer to remnant fraction ([2]; 10 μM, 6 hr): 29%; Inhibition (%) of cholesteryl ester transfer to remnant fraction ([2]; 30 μM, 6 hr): 92%; Inhibition (%) of CETP activity (CETP; 3 μM, 6 hr): 3%; Inhibition (%) of CETP activity (CETP; 10 μM, 6 hr): 34%; Inhibition (%) of CETP activity (CETP; 30 μM, 6 hr): 75% |
| CCN(CC1CCCC1)c1cc2c(cc1CN(Cc1cc(C#N)cc(C(F)(F)F)c1)C(=O)OC)CCC2 [Compound C, methyl (3-cyano-5-trifluoromethylbenzyl)-[6-(N-cyclopentylmethyl-N-ethylamino)indan-5-ylmethyl]-carbamate] | 21 | 34 | 41 | −25 | 9 | 35 | – | – | – | – | Inhibition (%) of remnant lipoprotein production ([1]; 3 μM, 4 hr): 93%; Inhibition (%) of cholesteryl ester transfer to remnant fraction ([2]; 3 μM, 4 hr): 92%; inhibition at 0.1 µM (CETP; 0.1 μM, 4 hr): 6%; inhibition at 0.3 µM (CETP; 0.3 μM, 4 hr): 12%; inhibition at 1 µM (CETP; 1 μM, 4 hr): 31%; inhibition at 3 µM (CETP; 3 μM, 4 hr): 57% |
| CCOC(=O)N1c2ccc(C(F)(F)F)cc2[C@@H](N(Cc2cc(C(F)(F)F)cc(C(F)(F)F)c2)C(=O)OC)C[C@H]1CC [Compound D, ethyl (2R,4S)-4-[[3,5-bis(trifluoromethyl)benzyl](methoxycarbonyl)amino]-2-ethyl-6-(trifluoromethyl)-3,4-dihydroquinoline-1(2H)-carboxylic acid ester] | 44 | 59 | 62 | 54 | 78 | 94 | 38 | 32 | 12 | 28 | – |
| CCN(C[C@H]1CC[C@H](CC(=O)O)CC1)c1cc(C)c(C(F)(F)F)cc1CN(Cc1cc(C(F)(F)F)cc(C(F)(F)F)c1)c1nnn(C)n1.CS(=O)(=O)O [Compound B, trans-(4-{[N-(2-{[N′-[3,5-bis(trifluoromethyl)benzyl]-N′-(2-methyl-2H-tetrazol-5-yl)amino]methyl}-5-methyl-4-trifluoromethylphenyl)-N-ethylamino]methyl}cyclohexyl)acetic acid methanesulfonate] | 42 | 52 | 84 | 55 | 89 | 100 | 29 | 36 | 15 | 26 | Inhibition (%) of CETP activity (CETP; 0.01 μM, 4 hr): 10%; Inhibition (%) of CETP activity (CETP; 0.03 μM, 4 hr): 25%; Inhibition (%) of CETP activity (CETP; 0.1 μM, 4 hr): 53%; Inhibition (%) of CETP activity (CETP; 0.3 μM, 4 hr): 74%; Inhibition (%) of CETP activity (CETP; 1 μM, 4 hr): 86% |

Source: patent publication US20140364493A1, “METHOD OF INHIBITING REMNANT LIPOPROTEIN PRODUCTION” (Japan Tobacco Inc., priority 2003, published 2014)
